# Data reported in PubChem BioAssay AID2060330 (Molecular Pharmacology Branch, DTP, NCI, 2025).
# Values joined by “and” are separate entries in the source; they are usually repeats but may differ in a detail not shown here. Identical values can stand only once.
# System: LG0703-F948-PDC spheroids with HUVEC/MSC, viability
# Test: Anticancer human tumor LG0703-F948-PDC patient-derived lung adenocarcinoma cell line growth inhibition [IpAb]
# Conditions: for viability, T/C: stronger effect = lower value
# From the text: Combinatorial screen of targeted agents with ipatasertib and abemaciclib in multi-cell type tumor spheroids
# A high-throughput screen of multi-cell type tumor spheroids was designed to identify active combinations of targeted small molecules and ipatasertib or abemaciclib. Complex spheroids include a stromal component modeled by human endothelial cells (HUVEC) and fibroblasts modeled by human mesenchymal stem cells (MSCs). The concentration ranges selected for each drug and investigational agent were based upon clinically achievable concentrations if the clinical Cmax of the agent was known.
# Compounds. The drugs and investigational agents: ipatasertib (NSC767898), abemaciclib(NSC768073), selumetinib (NSC741078), trametinib (758246), adavosertib (NSC754352), everolimus (NSC733504), sapanisertib (NSC764658), vemurafenib (NSC761431), venetoclax (NSC766270), copanlisib (NSC809693), apelisib (NSC765974), palbociblib (NSC758247), vemurafenib (NSC761431), dabrafenib (NSC764134), ravoxertinib (NSC781343), BMS-387032 (NSC767048), sotorasib (NSC818433), talazoparib (NSC767125) and afursertib (NSC778305), were obtained from the National Cancer Institute (NCI) Developmental Therapeutics Program Chemical Repository. The FDA-approved anticancer drug set is available from the NCI Developmental Therapeutics Program. […] The stock solutions were prepared in dimethyl sulfoxide (DMSO, Sigma-Aldrich, St. Louis, MO, cat. D2650) at 800-fold the tested concentration and stored at -70 degrees C prior to their use. All drugs and investigational agents were tested over a range starting from a high concentration at or near the clinical Cmax and decreasing in half-log increments. If the clinical Cmax for an agent had not been determined, the highest concentration tested was 10 microM.
# NCI60 Cell Culture. NCI60 cell lines were obtained from the NCI Developmental Therapeutics Program Tumor Repository. For each lot of cells, the Repository performed Applied Biosystems AmpFLSTR Identifiler testing with PCR amplification to confirm consistency with the published Identifier STR profile for each cell line. Cells were kept in continuous culture for no more than 20 passages. The optimal seeding densities for each of the cell lines at each time point assessed were determined prior to performing the concentration response studies. Briefly, the NCI60 human tumor lines were grown as monolayers in RPMI 1640 medium supplemented with 10% FBS and 2 mmol/L L-glutamine.
# An additional 9 lines were from the NCI60 cell line panel including MDA-MB-231 breast carcinoma, MDA-MB-468 breast carcinoma, MCF7 breast carcinoma, Hs578T breast carcinoma, MALME-3M melanoma, SK-MEL-2 melanoma, SK-OV-3 ovarian carcinoma, DU-145 prostate carcinoma, PC-3 prostate carcinoma, all cell lines along with major genetic alterations are listed on Table 2. Pooled donor human umbilical vein endothelial cells (HUVEC, Lonza, cat. CC-2519) and human mesenchymal stem cells (hMSC, Lonza, cat. PT-2501) were purchased from Lonza (Walkersville, MD).
# PDMR cell lines were grown in complete medium (DC medium): Dulbecco's modified Eagle's medium (DMEM)/F12 supplemented with 5% fetal bovine serum (FBS), 2 mM L-glutamine, 100 U/mL penicillin and 100 µg/ml streptomycin, 0.4 µg/ml hydrocortisone, 10 ng/ml epidermal growth factor (EGF) recombinant human protein, 24 µg/mL adenine, and 0.1 mg/mL primocin. During culture from frozen stock vials, PDMR cells were cultured in the same medium containing 10 µM Y-27632 (see Table 3). The PDCs were cultured in complete DMEM/F12 media without 10 microM Y-27632 dihydrochloride for at least two passages prior to the screen. The pooled donor HUVEC and hMSC were cultured in endothelial cell growth medium 2 (PromoCell, Heidelberg, Germany, cat. C-22011) and mesenchymal stem cell growth medium 2 (PromoCell, cat. C-28009), respectively. For all experiments, HUVEC and hMSC were used at passages </=5.
# […]
# 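Further: spheroids exposed to compounds for seven days before readout.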
# 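Wherever viability, T/C is given: T/C percent relative to DMSO vehicle wells set as 100% viability.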
SMILES,"viability, T/C (compound 0.0316 µM)","viability, T/C (compound 0.1 µM)","viability, T/C (compound 0.316 µM)","viability, T/C (compound 1 µM)","viability, T/C (compound 3.16 µM)","viability, T/C (compound 10 µM)",IC50 (curve of compound),other results
C=CC(=O)N1CCN(c2nc(=O)n(-c3c(C)ccnc3C(C)C)c3nc(-c4c(O)cccc4F)c(F)cc23)C(C)C1 (centres undefined),110% and 106%,108% and 103%,119%,113% and 129%,108% and 119%,65.2% and 83%,> 10000 nM,–
C=CCn1c(=O)c2cnc(Nc3ccc(N4CCN(C)CC4)cc3)nc2n1-c1cccc(C(C)(C)O)n1,108% and 109%,107% and 101%,96.2% and 81.3%,58% and 55.1%,19.6% and 15.7%,6.89% and 4.96%,1280 nM and 1040 nM,–
CC(=O)c1c(C)c2cnc(Nc3ccc(N4CCNCC4)cn3)nc2n(C2CCCC2)c1=O,–,–,–,–,–,–,> 300 nM,"viability, T/C (compound 0.000949 µM): 115% and 112%; viability, T/C (compound 0.003 µM): 112% and 98.4%; viability, T/C (compound 0.00949 µM): 103% and 102%; viability, T/C (compound 0.03 µM): 101% and 87.4%; viability, T/C (compound 0.0949 µM): 103% and 73.3%; viability, T/C (compound 0.3 µM): 84% and 77.2%"
CC(C)(C)c1cnc(CSc2cnc(NC(=O)C3CCNCC3)s2)o1,–,–,–,–,–,–,108 nM and 76.9 nM,"viability, T/C (compound 0.00949 µM): 105% and 90.3%; viability, T/C (compound 0.03 µM): 84% and 77.8%; viability, T/C (compound 0.0949 µM): 58.7% and 44.8%; viability, T/C (compound 0.3 µM): 0.71% and 0.81%; viability, T/C (compound 0.949 µM): 0.43% and 0.49%; viability, T/C (compound 3 µM): 0.25% and 0.28%"
CC(C)NCC(C(=O)N1CCN(c2ncnc3c2C(C)CC3O)CC1)c1ccc(Cl)cc1 (centres undefined),–,81% [middle of 13 runs],64.2% [middle of 13 runs],–,44.4% [middle of 13 runs],40.4% [middle of 13 runs],–,–
CC(C)n1nc(-c2ccc3oc(N)nc3c2)c2c(N)ncnc21,19.4% and 23.2%,19.6% and 22.4%,–,–,–,–,2.95 nM and 4.75 nM,"viability, T/C (compound 0.000316 µM): 87.8% and 89.9%; viability, T/C (compound 0.001 µM): 66.2% and 83.2%; viability, T/C (compound 0.00316 µM): 52% and 57.7%; viability, T/C (compound 0.01 µM): 32.2% and 35.2%"
CC1(C)CCC(CN2CCN(c3ccc(C(=O)NS(=O)(=O)c4ccc(NCC5CCOCC5)c([N+](=O)[O-])c4)c(Oc4cnc5[nH]ccc5c4)c3)CC2)=C(c2ccc(Cl)cc2)C1,107% and 100%,106% and 101%,105% and 90.3%,101% and 95.1%,69.9% and 84.5%,14.1% and 13.4%,4740 nM and 5530 nM,–
CCCS(=O)(=O)Nc1ccc(F)c(C(=O)c2c[nH]c3ncc(-c4ccc(Cl)cc4)cc23)c1F,98.2% and 112%,99.7% and 110%,91.5% and 92.6%,105% and 111%,98.9% and 101%,76.2% and 71.7%,> 10000 nM,–
CCN1CCN(Cc2ccc(Nc3ncc(F)c(-c4cc(F)c5nc(C)n(C(C)C)c5c4)n3)nc2)CC1,97% [middle of 13 runs],91% [middle of 12 runs],83.5% [middle of 13 runs],–,–,–,–,"IC50 (compound alone, run of 06/01/2021): > 1000 nM"
COc1c(OCCCN2CCOCC2)ccc2c3n(c(=NC(=O)c4cnc(N)nc4)nc12)CCN3,56.1% and 63.4%,20.8% and 24%,6.09% and 7.35%,3.7% and 4.95%,–,–,35.6 nM and 46.5 nM,"viability, T/C (compound 0.00316 µM): 96.2% and 95.4%; viability, T/C (compound 0.01 µM): 78.3% and 87.8%"
